Source: patent publication US11980620B2, “Compounds and methods for treatment of Diamond Blackfan anemia” (THE CHILDREN'S MEDICAL CENTER CORPORATION, priority 2017, dated 2024)

Tests used:
[1] = system: mice with irradiation-induced anemia; test: Irradiation-induced anemia in mice, peripheral blood RBC counts and hematocrit; type: in vivo, mouse; details: 10 mg/kg, 3 weeks, sub-lethally irradiated mice
Description: (FIG. 10A) SMER28 rescues RBC output in rps29^+/− zebrafish embryos. The level of hemoglobin in the yolk sac was visualized 40hpf with benzidine staining. Images are representative of the proportion of embryos indicated (of total counted). (FIG. 10B) Quantitation of SMER28 rescue for a range of 0.1-1 μM, with embryos grouped by high, medium, and low levels of hemoglobin staining. (FIG. 10C) Peripheral blood (PB) RBC counts and hematocrit in mice with irradiation-induced anemia. Mice were treated with the PEG400-based vehicle containing DMSO (VEH) (n=11), 1 mg/kg Dex (sodium-phosphate) (n=13), or 10 mg/kg SMER28 (n=9) for 3 weeks, bled, and assessed. Data are combined from 3 independent experiments. (FIG. 10D) Erythroid cells as proportion of the human graft in mice transplanted with DBA CD34-5F progenitors, and treated as in (FIG. 1c). (FIG. 10E) Levels of human engraftment in NSG mouse bone marrow (BM) transplanted with CB CD34^+ cells. Mice were treated with DMSO plus vehicle (VEH) (n=10), 1 mg/kg Dex (sodium-phosphate) (n=6), or 2 mg/kg SMER28 (n=11) for 4 weeks. (FIG. 10F) The proportion of erythroid, myeloid, and lymphoid (B cells) lineages within the human graft in vehicle- and SMER28-treated mice transplanted with CB CD34^+ cells. Only the effect on the erythroid lineage was significant. Data in FIGS. 10E-10G are pooled from 2 independent experiments. […]

[2] = Dose escalation tolerability in mice; type: in vivo; details: dose escalation up to 20 mg/kg
Source text: In following evaluation, the effects of administration of SMER28 to mice with irradiation-induced anemia, a model that enables dose-finding and initial testing of safety and bioactivity. […] To assess bioactivity, we measured the levels of autophagic marker LC3 in treated animals. […] (FIG. 10C). We tested the effect of this compound on human cells by treating NSG mice transplanted with human CD34-5F and CB cells. SMER28 increased the output of GlyA^+ RBCs from DBA CD34-5F cells (FIG. 10D).
Drug treatments. SMER28 was purchased from Tocris and diluted in 10 mM aliquots in DMSO. The final concentration for CD34-5F and CB CD34^+erythroid treatments was 0.2-10 μM as indicated in the text. The final concentration for K562 cell treatments was 20-40 μM. Ferric citrate (1-50 μM) and deferoxamine (100-200 μM) (Sigma) were dissolved in PBS and added on days 0-4 of “expansion” culture, and washed off prior to erythroid stage I (days 4-9) differentiation. For in vivo experiments, SMER28 aliquots were diluted in vehicle solution: 30% PEG-400, 5% propylene glycol, and 0.5% Tween-80. Dosing for human xenograft experiments was 2 mg/kg; for mouse models 10-20 mg/kg. Dexamethasone was purchased as Dex-sodium phosphate (DexSP) water-soluble formulation (Santa Cruz), and diluted in PBS vehicle (1 mg/kg). […]

[3] = system: CD34-5F progenitors with ATG5 knockdown; test: Erythroid differentiation of CD34-5F cells transduced with shRNAs for ATG5; type: cell-based, human; details: SMER28 10 μM; p=0.005
Description: (FIG. 13A) Induction of autophagy by SMER28 (40 μM) monitored by protein levels of p62, LC3-I, and LC3-II after 24 hours. Cells were also treated with 5-FU (100 nM) to induce autophagy, or inhibitor of transcription actinomycin D (ActD; 100 nM). (FIG. 13B) Induction of autophagy by SMER28 (40 μM) monitored by protein levels of p62, LC3-I, and LC3-II after 24 hours treatment with or without lysosomal blockade with bafilomycin A (200 nM for 4 hours). Untreated samples are shown at higher exposure, to capture dynamic changes in the LC3-II levels. Rapamycin (200 nM) is a positive control. LC3-II levels relative to GAPDH are quantitated on the right. (FIG. 13C) Erythroid differentiation of CD34-5F cells transduced with shRNAs for luciferase (LUC) or ATG5±SMER28. Representative flow plots and quantitation showing the number of erythroid cells induced by SMER28 (10 μM) normalized to DMSO. 2 control luciferase shRNAs and 2 ATG5 shRNAs are included (knockdown efficiency in hematopoietic cells of 58% and 50%, respectively), each with 2 independent lines; p=0.005, 3 independent experiments. (FIG. 13D) Atg5 deficiency causes anemia in zebrafish. […] Representative images (left), and quantitation (right) with embryos grouped by high, medium, and low levels of benzidine staining. […]

## C=CCNc1ncnc2ccc(Br)cc12 [SMER28, 6-Bromo-N-2-propenyl-4-quinazolinam]
[1]; p=0.04
  hematocrit vs vehicle: modestly elevated
[1]; p=0.07
  peripheral blood RBC counts vs vehicle: modestly elevated
[2]
  tolerability / overt toxicity: well tolerated
[3]
  effect of SMER28 on erythroid differentiation after knockdown of ATG5: significantly reduced
